Literature values as cited in patent US20210275558A1, “METHODS FOR TREATING, PHARMACEUTICAL COMPOSITIONS AND USES THEREOF” (Boehringer Ingelheim International GmbH, priority 2018, published 2021).

Tests used:
[1] = crystalline form
[2] = in vivo
[3] = test system: patients with type 2 diabetes mellitus and high cardiovascular risk
[4] = secondary outcomes analyses, patients with type 2 diabetes and established cardiovascular disease

OC[C@H]1O[C@@H](c2ccc(Cl)c(Cc3ccc(O[C@H]4CCOC4)cc3)c2)[C@H](O)[C@@H](O)[C@@H]1O [empagliflozin, 1-chloro-4-(β-D-glucopyranos-1-yl)-2-[4-((S)-tetrahydrofuran-3-yloxy)-benzyl]benzene]
solubility [1]: good solubility properties
stability [1]: physico-chemically stable
diuretic, arterial stiffness and vascular effects [2]: diuretic effect, reduced arterial stiffness and direct vascular effects
reflex-mediated sympathetic activation ([3]; in contrast to increases observed with diuretics): not being associated with clinically relevant reflex-mediated sympathetic activation
blood pressure and heart rate ([3]; in vivo): blood pressure reductions without clinically relevant changes of the heart rate
risk of cardiovascular death, hospitalization for heart failure and overall mortality ([3]; patients with type 2 diabetes mellitus and high cardiovascular risk): reduced the risk of cardiovascular death, hospitalization for heart failure and overall mortality
progression of kidney disease [3, 4]: slowed progression of kidney disease
risk for clinically relevant kidney events (inclusive end-stage kidney disease) [3, 4]: reduced the risk for clinically relevant kidney events
